Legend:
Assay in all cases: relative viability (nuclei count vs DMSO), 5 days (fraction); higher = more cells survive
[1] = system: CAL-12T
In short: (§1)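 Relative viability divides the nuclei count in treated wells by that in vehicle wells. Lung cancer cell lines were seeded in 1536-well plates, dosed by pin tool the next day, and fixed and stained after 5 days in one step with final 0.05% Triton X-100, 1% formaldehyde and 1 ug/ml Hoechst. Dosing was a single drug or a fixed anchor-drug dose plus five library-drug doses (not always all listed) in √10 steps, and values are medians of duplicate plates imaged at 4×.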

[2] = system: COR-L 105
In short: as §1

[3] = system: H3255
In short: as §1

[4] = system: HARA
In short: as §1

[5] = system: HCC-15
In short: as §1

[6] = system: HCC-366
In short: as §1

[7] = system: LC-2-ad
In short: as §1

[8] = system: LU99A
In short: as §1

[9] = system: NCI-H1395
In short: as §1

[10] = system: NCI-H1666
In short: as §1

[11] = system: NCI-H1734
In short: as §1

[12] = system: NCI-H1944
In short: as §1

[13] = system: NCI-H1975
In short: as §1

[14] = system: NCI-H1993
In short: as §1

[15] = system: NCI-H2228
In short: as §1

[16] = system: NCI-H3122
In short: as §1

[17] = system: NCI-H520
In short: as §1

[18] = system: NCI-H647
In short: as §1

[19] = system: NCI-H661
In short: as §1

[20] = system: NCI-H838
In short: as §1

[21] = system: PC-14
In short: as §1

[22] = system: PC-3 [JPC-3]
In short: as §1

[23] = system: SK-LU-1
In short: as §1

SMILES: Cc1cnc(-c2cnc(NCCNc3ccc(C#N)cn3)nc2-c2ccc(Cl)cc2Cl)[nH]1 + C[C@]1(O)C[C@@H](c2nc(-c3ccc4ccc(-c5ccccc5)nc4c3)c3c(N)nccn32)C1 [Linsitinib] (partner 1 µM)
- relative viability ([1]; first compound 0.08 µM): 0.806
- relative viability ([1]; first compound 0.253 µM): 0.787
- relative viability ([1]; first compound 0.8 µM): 0.841
- relative viability ([1]; first compound 2.53 µM): 0.837
- relative viability ([2]; first compound 0.08 µM): 1
- relative viability ([2]; first compound 0.253 µM): 0.897
- relative viability ([2]; first compound 0.8 µM): 0.832
- relative viability ([2]; first compound 2.53 µM): 0.697
- relative viability ([3]; first compound 0.08 µM): 1.15
- relative viability ([3]; first compound 0.253 µM): 0.884
- relative viability ([3]; first compound 0.8 µM): 0.928
- relative viability ([3]; first compound 2.53 µM): 0.944
- relative viability ([4]; first compound 0.08 µM): 1.1
- relative viability ([4]; first compound 0.253 µM): 0.847
- relative viability ([4]; first compound 0.8 µM): 0.921
- relative viability ([4]; first compound 2.53 µM): 0.933
- relative viability ([5]; first compound 0.08 µM): 0.897
- relative viability ([5]; first compound 0.253 µM): 0.811
- relative viability ([5]; first compound 0.8 µM): 0.8
- relative viability ([5]; first compound 2.53 µM): 0.835
- relative viability ([6]; first compound 0.08 µM): 0.694
- relative viability ([6]; first compound 0.253 µM): 0.557
- relative viability ([6]; first compound 0.8 µM): 0.608
- relative viability ([6]; first compound 2.53 µM): 0.28
- relative viability ([7]; first compound 0.08 µM): 0.905
- relative viability ([7]; first compound 0.8 µM): 0.858
- relative viability ([7]; first compound 2.53 µM): 0.92
- relative viability ([8]; first compound 0.08 µM): 0.592
- relative viability ([8]; first compound 0.253 µM): 0.538
- relative viability ([8]; first compound 0.8 µM): 0.5
- relative viability ([8]; first compound 2.53 µM): 0.569
- relative viability ([9]; first compound 0.08 µM): 1.17
- relative viability ([9]; first compound 0.253 µM): 0.972
- relative viability ([9]; first compound 0.8 µM): 1.04
- relative viability ([9]; first compound 2.53 µM): 1
- relative viability ([10]; first compound 0.08 µM): 0.926
- relative viability ([10]; first compound 0.253 µM): 0.868
- relative viability ([10]; first compound 0.8 µM): 0.921
- relative viability ([10]; first compound 2.53 µM): 0.976
- relative viability ([11]; first compound 0.08 µM): 1.01
- relative viability ([11]; first compound 0.253 µM): 0.763
- relative viability ([11]; first compound 0.8 µM): 0.837
- relative viability ([11]; first compound 2.53 µM): 0.849
- relative viability ([12]; first compound 0.08 µM): 1.36
- relative viability ([12]; first compound 0.8 µM): 1.23
- relative viability ([12]; first compound 2.53 µM): 1.21
- relative viability ([13]; first compound 0.08 µM): 1
- relative viability ([13]; first compound 0.253 µM): 0.847
- relative viability ([13]; first compound 0.8 µM): 0.836
- relative viability ([13]; first compound 2.53 µM): 0.603
- relative viability ([14]; first compound 0.08 µM): 0.74
- relative viability ([14]; first compound 0.253 µM): 0.763
- relative viability ([14]; first compound 0.8 µM): 0.701
- relative viability ([14]; first compound 2.53 µM): 0.784
- relative viability ([15]; first compound 0.08 µM): 0.678
- relative viability ([15]; first compound 0.253 µM): 0.637
- relative viability ([15]; first compound 0.8 µM): 0.597
- relative viability ([15]; first compound 2.53 µM): 0.481
- relative viability ([16]; first compound 0.08 µM): 1.04
- relative viability ([16]; first compound 0.253 µM): 0.949
- relative viability ([16]; first compound 0.8 µM): 1.04
- relative viability ([16]; first compound 2.53 µM): 0.997
- relative viability ([17]; first compound 0.08 µM): 0.974
- relative viability ([17]; first compound 0.253 µM): 0.985
- relative viability ([17]; first compound 0.8 µM): 0.965
- relative viability ([17]; first compound 2.53 µM): 1.09
- relative viability ([18]; first compound 0.08 µM): 1.17
- relative viability ([18]; first compound 0.253 µM): 0.993
- relative viability ([18]; first compound 0.8 µM): 1.17
- relative viability ([18]; first compound 2.53 µM): 1.03
- relative viability ([19]; first compound 0.08 µM): 0.775
- relative viability ([19]; first compound 0.253 µM): 0.628
- relative viability ([19]; first compound 0.8 µM): 0.448
- relative viability ([19]; first compound 2.53 µM): 0.63
- relative viability ([20]; first compound 0.08 µM): 1.02
- relative viability ([20]; first compound 0.253 µM): 1.02
- relative viability ([20]; first compound 0.8 µM): 1.25
- relative viability ([20]; first compound 2.53 µM): 1.51
- relative viability ([21]; first compound 0.08 µM): 0.946
- relative viability ([21]; first compound 0.253 µM): 0.896
- relative viability ([21]; first compound 0.8 µM): 0.913
- relative viability ([21]; first compound 2.53 µM): 0.834
- relative viability ([22]; first compound 0.08 µM): 0.93
- relative viability ([22]; first compound 0.253 µM): 0.858
- relative viability ([22]; first compound 0.8 µM): 0.943
- relative viability ([22]; first compound 2.53 µM): 0.964
- relative viability ([23]; first compound 0.08 µM): 1.13
- relative viability ([23]; first compound 0.253 µM): 1.12
- relative viability ([23]; first compound 0.8 µM): 1.32
- relative viability ([23]; first compound 2.53 µM): 1.09

From the supplement of paper PMC10307832
